According to patent US10336746B1, “RAD51 inhibitors” (Cyteir Therapeutics, Inc., priority 2017, dated 2019):

Experiments:
[1] = test system: Daudi cell line (AID positive); assay: Primary screening cell killing assay, Daudi cell line (AID positive); assay type: cell-based; conditions: Homo sapiens, 168 h, cell death on Day 7, Cell-Titer Glo
Procedure, shortened: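 AID-positive Daudi cells, 1250 per well, were exposed to serially diluted compounds for 7 days at 37° C. Viability read by CellTiter-Glo luminescence; percent cell death and EC50 derived against untreated wells after media-blank subtraction.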

[2] = Human liver microsome stability; assay type: in vitro ADME; conditions: human liver microsomes; for half-life / microsomal CLint: 37° C., 45 minutes; for microsomal CLint: read-out: Clearance (μg/min/mg)
Procedure: The stability of the claimed compounds was determined in the presences of human liver microsomes. The compounds were incubated with the microsomes at 37° C. for 45 minutes. Samples were analyzed using LC-MS/MS. Data analysis included half-life, clearance rate, and the percentage of hepatic blood flow (% QH) for each of the compounds in the different species.

[3] = test system: WSU-FSCCL (Lymphoma); assay: Cell line screen, WSU-FSCCL; assay type: cell-based; conditions: AICDA Expression Negative
Procedure: (§1) The activity of the claimed compounds was measured in a variety of cell lines with different expression levels of activation induced cytidine deaminase (AICDA). The potency assay was repeated in all of the listed cell lines and the EC50 values recorded.

[4] = test system: KG-1 (Leukemia); assay: Cell line screen, KG-1; assay type: cell-based; conditions: AICDA Expression Negative
Procedure: as §1

[5] = test system: SNU-5 (Gastric); assay: Cell line screen, SNU-5; assay type: cell-based; conditions: Homo sapiens, AICDA Expression Low
Procedure: as §1

SMILES	EC50 [1]	% QH (percentage of hepatic blood flow) [2]	half-life [2]	microsomal CLint [2]	EC50 [3]	EC50 [4]	EC50 [5]
CC(C)OC(=O)N[C@H]1CC[C@H](c2ncc(-c3ccc(NC(=O)NCc4ccccc4)cc3S(=O)(=O)NC(C)(C)C)s2)CC1 [Ex. 66A, trans-isopropyl N-[4-[5-[4-(benzylcarbamoylamino)-2-(tert-butylsulfamoyl)phenyl]thiazol-2-yl]cyclohexyl]carbamate]	≤ 100 nM	49.6%	77.6 min	18.2 µL/min/mg	25 nM	3.07 µM	2.94 µM
CC(C)OC(=O)Nc1ccc(-c2cnc([C@H]3CC[C@H](NC(=O)OC(C)C)CC3)s2)c(S(=O)(=O)NC(C)(C)C)c1 [Ex. 67A, trans-isopropyl N-[3-(tert-butylsulfamoyl)-4-[2-[4-(isopropoxycarbonylamino)cyclohexyl]thiazol-5-yl]phenyl]carbamate]	100 to 1000 nM	<20.3%	> 300 min	< 4.6 µL/min/mg	344 nM	3 µM	3.85 µM
